Marks after values point to notes of the source that are not given here.
Test system: SAMP8/Ta Slc mice
Experiment: Measurement of rotational motor activity in mouse (turning wheel; motor activity in light period)
Type: in vivo
Settings: for Motor Activity in light period, % of Pre: Pre value = 100%; for Motor Activity in light period, %: n = 9
Method: Animals: SAMP8/Ta Slc mice (16 weeks old), and SAMR1/Ta Slc mice (16 weeks old) as control mouse were used. After breeding in a rearing room, they were used after the age of 6-month-old to 8-month-old. A sole isolation breeding was conducted during the breeding. AB system of Neuroscience Co. was used for measurement. The mice were put in separate cages, and the turning wheel's rotation number for every minute by mouse was measured, and the data was analyzed as a motor activity for every hour. A turning wheel was equipped in the cage for measurement. The number in which the mouse rotated the turning wheel was automatically counted every minute with AB system (Neuroscience Co.), and recorded with time course as an amount of movement (motor activity). Using the total value of turning wheel's rotation number in habituation stage, each group was evenly grouped. Compound A was dissolved in water for injection, and water for injection was used as a vehicle. The solution and vehicle were administered as drinking water, respectively. The drinking water was replaced with new one every week. Pre: Habituation period (1 week) First week: Vehicle/Compound A 0.1-0.2 mg/kg/day Second week: Vehicle/Compound A 0.1-0.2 mg/kg/day Third week: Vehicle/Compound A 1-2 mg/kg/day Fourth week: Vehicle/Compound A 1-2 mg/kg/day Fifth week: Vehicle/Compound A 1-2 mg/kg/day The number of rotational movement which was automatically counted every minute by AB system (Neuroscience Co.) was tallied for every hour. Calculation was carried out according to the following sequences. (i) By calculating according to the following mathematical formula: (rotational motor activity in light period of a day)/(rotational motor activity in light period of a day+rotational motor activity in dark period of a day)×100, motor activity % in light period was determined. (ii) The mean value of motor activity % in light period was calculated for every week, and was made a representative value for every week. (iii) In addition, in case that the value of Pre was made 100%, rate of change of motor activity % in light period after administration was shown as % of Pre value. Statistical analysis was performed with t-test or Paired t-test for vehicle administration group and compound A administration group of SAMP8.

[1] = 1st week, Compound A 0.1-0.2 mg/kg/day in drinking water
[2] = 2nd week, Compound A 0.1-0.2 mg/kg/day in drinking water
[3] = 3rd week, Compound A 1-2 mg/kg/day in drinking water
[4] = 4th week, Compound A 1-2 mg/kg/day in drinking water
[5] = 5th week, Compound A 1-2 mg/kg/day in drinking water

## CCC(=O)NCC[C@@H]1CCc2ccc3c(c21)CCO3 [Compound A, (S)—N-[2-(1,6,7,8-tetrahydro-2H-indeno[5,4-b]furan-8-yl)ethyl]propionamide]
0.1-0.2 then 1-2 mg/kg/day in drinking water
  abnormal behavior in light period of SAMP8: inhibit dose-dependently
[1]
  Motor Activity in light period, % of Pre: 97.67 % of Pre
  Motor Activity in light period, %: 30.95%
[2]
  Motor Activity in light period, % of Pre: 79.60 % of Pre
  Motor Activity in light period, %: 24.58%
[3]
  Motor Activity in light period, % of Pre: 70.25** % of Pre
  Motor Activity in light period, %: 22.82* %
[4]
  Motor Activity in light period, % of Pre: 74.77* % of Pre
  Motor Activity in light period, %: 23.75* %
[5]
  Motor Activity in light period, % of Pre: 71.64* % of Pre
  Motor Activity in light period, %: 21.18** %
First and second week, 0.1-0.2 mg/kg/day in drinking water
  change of the motor activity % in light period and the % of Pre value compared to the vehicle administered group: there was not observed a change
Third to fifth week, 1-2 mg/kg/day in drinking water
  motor activity % in light period and the % of Pre value compared to the vehicle-administered group: decreased
